Measured values as given in PubChem BioAssay (NCI).
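Values below derive from 48-hour exposures of cells grown in 96-well plates, with endpoints linearly interpolated between the two concentrations bracketing the appropriate inhibition level. GI50 = concentration required for 50% inhibition of growth. TGI: concentration producing complete growth inhibition.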

What was measured:
Assay in all cases: NCI-60 cell line screen, 48 h
OVCAR-4 ovarian = tested on: OVCAR-4 ovarian
IGROV1 ovarian = tested on: IGROV1 ovarian
MCF7 breast = tested on: MCF7 breast
CAKI-1 renal = tested on: CAKI-1 renal
TK-10 renal = tested on: TK-10 renal
RPMI-8226 leukemia = tested on: RPMI-8226 leukemia
SF-295 CNS = tested on: SF-295 CNS
UACC-257 melanoma = tested on: UACC-257 melanoma
HT29 colon = tested on: HT29 colon
NCI/ADR-RES ovarian = tested on: NCI/ADR-RES ovarian

Structure (SMILES)	TGI (OVCAR-4 ovarian) [µM]	TGI (IGROV1 ovarian) [µM]	TGI (MCF7 breast) [µM]	TGI (CAKI-1 renal) [µM]	TGI (TK-10 renal) [µM]	TGI (RPMI-8226 leukemia) [µM]	TGI (SF-295 CNS) [µM]	TGI (UACC-257 melanoma) [µM]	TGI (HT29 colon) [µM]	TGI (NCI/ADR-RES ovarian) [µM]	GI50 (OVCAR-4 ovarian) [µM]	GI50 (MCF7 breast) [µM]	GI50 (CAKI-1 renal) [µM]	GI50 (TK-10 renal) [µM]	GI50 (RPMI-8226 leukemia) [µM]	GI50 (SF-295 CNS) [µM]	GI50 (UACC-257 melanoma) [µM]	GI50 (NCI/ADR-RES ovarian) [µM]	GI50 (HT29 colon) [µM]	GI50 (IGROV1 ovarian) [µM]
CCOc1ccc(/C=C2\N=C(c3ccc([N+](=O)[O-])cc3)OC2=O)cc1	> 100	> 100	> 100	> 100	> 100	> 100	> 100	> 100	> 100	–	–	–	–	–	–	–	–	–	–	–
O=C1CCC2(c3ccc(Cl)cc3)Nc3cc(Cl)ccc3N12 (centres undefined)	23.1	28.7	–	–	–	> 100	21.4	28.7	25.2	–	–	–	–	–	–	–	–	–	–	–
C=CCC1(c2ccc(OC)cc2)C=CC(=O)CC1 (centres undefined)	> 100	> 100	> 100	> 100	> 100	–	> 100	> 100	> 100	> 100	–	–	–	–	–	–	–	–	–	–
N#C/C(=C\c1ccc2ccccc2c1)C(=O)c1ccccc1	> 100	> 100	> 100	> 100	> 100	97.8	> 100	> 100	> 100	–	–	–	–	–	–	–	–	–	–	–
COc1ccc(-c2ccc(=O)oc2C#Cc2cc(OC)c(OC)c(OC)c2)cc1O	> 100	–	> 100	> 100	> 100	–	> 100	> 37.3	12.3	> 43.8	1.3	0.12	0.621	6.88	0.23	0.495	0.857	0.262	1.25	–
C=CCCCCC1CCC2CCC(CCCCC=C)N12 (centres undefined)	26.3	–	–	84.8	34.8	41	26.4	29.3	25.5	–	–	–	–	–	–	–	–	–	–	–
COc1ccc(C(=O)Nc2ccc(O)c(=O)cc2)cc1	–	> 100	65	> 100	> 100	> 100	> 100	> 100	44.1	> 100	–	–	–	–	–	–	–	–	–	–
CC12CCC(=O)C[C@H]1CCC(OC=O)C2Br (some centres undefined)	> 100	> 100	–	> 100	> 100	> 100	> 100	> 100	> 100	–	–	–	–	–	–	–	–	–	–	–
Cc1ccc2nc(/C(=C/c3ccc(/C=C(\NC(=O)c4ccccc4)c4nc5ccc(C)cc5[nH]4)c(C)c3)NC(=O)c3ccccc3)[nH]c2c1	–	> 100	–	91.3	88	80.9	–	–	> 100	–	–	–	–	–	–	–	–	–	–	–
COc1ccc(CCN(C)C2CCC(C#N)(c3ccc(OC)c(OC)c3)CC2)cc1OC (centres undefined)	> 100	> 100	–	–	> 100	> 100	> 100	> 100	> 100	–	–	–	–	–	–	–	–	–	–	–
CC1(C)OC2C(CO[Si](C)(C)C(C)(C)C)OC(n3c(I)c(C#C[Si](C)(C)C)c(=O)[nH]c3=O)C2O1 (centres undefined)	31.8	21.5	24.3	–	20	8.6	> 100	30.1	23.7	58.3	16.1	11.2	–	6.44	2.4	> 100	13.3	20.4	5.01	7.87
